Results reported in PubChem BioAssay AID330 (DTP/NCI, 2004).
Several values for one entry are separate records, joined by “and”; a condition that tells them apart may be missing. Identical values can stand only once. Inconclusive results and toxic doses are left out. The calls were made as follows: active = survival T/C of 150% or more; inactive = T/C below 125% in these data.

Tested on: P388 leukemia ip, CD2F1 mice, survival T/C
Assay: NCI In Vivo Anticancer Drug Screen. Data for tumor model P388 Leukemia (intraperitoneal) in CD2F1 (CDF1) mice
Conditions: endpoint: median survival time, higher = longer survival
Summary of the method: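 Mice carrying the transplanted tumor received test compound or vehicle. Survival was recorded in each group, and the value is the treated-group measurement divided by that of the vehicle-treated control group.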

[1] = dose: 25.0 mg/kg/injection, schedule: Q01DX009 (ip), vehicle: saline with Tween-80
[2] = dose: 50.0 mg/kg/injection, schedule: Q01DX009 (ip), vehicle: saline with Tween-80
[3] = dose: 12.5 mg/kg/injection, schedule: Q01DX009 (ip), vehicle: saline with Tween-80
[4] = dose: 50.0 mg/kg/injection, schedule: Q01DX005 (ip), vehicle: Klucel (hydroxypropylcellulose) (HPC)
[5] = dose: 100.0 mg/kg/injection, schedule: Q01DX005 (ip), vehicle: Klucel (hydroxypropylcellulose) (HPC)
[6] = dose: 200.0 mg/kg/injection, schedule: Q01DX005 (ip), vehicle: Klucel (hydroxypropylcellulose) (HPC)
[7] = dose: 12.5 mg/kg/injection, schedule: Q01DX009 (ip), vehicle: saline
[8] = dose: 25.0 mg/kg/injection, schedule: Q01DX009 (ip), vehicle: saline
[9] = dose: 50.0 mg/kg/injection, schedule: Q01DX009 (ip), vehicle: saline
[10] = dose: 100.0 mg/kg/injection, schedule: Q01DX009 (ip), vehicle: saline
[11] = dose: 60.0 mg/kg/injection, schedule: Q01DX005 (ip), vehicle: saline with Tween-80
[12] = dose: 120.0 mg/kg/injection, schedule: Q01DX005 (ip), vehicle: saline with Tween-80
[13] = dose: 240.0 mg/kg/injection, schedule: Q01DX005 (ip), vehicle: saline with Tween-80

Measured: T/C

COc1cc2c(cc1O)CC1c3c(cc(OC)c(O)c3C2)CCN1C (configuration not stated)
inactive: dose: 12.5 mg/kg/injection, schedule: Q01DX001 (ip), vehicle: saline with Tween-80 100 % of control | dose: 25.0 mg/kg/injection, schedule: Q01DX001 (ip), vehicle: saline with Tween-80 96 % of control | dose: 50.0 mg/kg/injection, schedule: Q01DX001 (ip), vehicle: saline with Tween-80 97 % of control | dose: 100.0 mg/kg/injection, schedule: Q01DX001 (ip), vehicle: saline with Tween-80 95 % of control

O=C(NC1(N2CCOCC2)CC1)c1ccc(Cl)cc1
inactive: dose: 60.0 mg/kg/injection, schedule: Q01DX005 (ip), vehicle: Klucel (hydroxypropylcellulose) (HPC) 88 % of control | dose: 120.0 mg/kg/injection, schedule: Q01DX005 (ip), vehicle: Klucel (hydroxypropylcellulose) (HPC) 103 % of control | dose: 240.0 mg/kg/injection, schedule: Q01DX005 (ip), vehicle: Klucel (hydroxypropylcellulose) (HPC) 103 % of control

CCCCN(C)N=Nc1ccccc1C(N)=O
inactive: [1] 109 % of control | [2] 118 % of control | dose: 100.0 mg/kg/injection, schedule: Q04DX003 (ip), vehicle: saline with Tween-80 113 % of control | dose: 176.0 mg/kg/injection, schedule: Q04DX003 (ip), vehicle: saline with Tween-80 109 % of control | dose: 200.0 mg/kg/injection, schedule: Q04DX003 (ip), vehicle: saline with Tween-80 109 % of control | dose: 264.0 mg/kg/injection, schedule: Q04DX003 (ip), vehicle: saline with Tween-80 109 % of control | dose: 400.0 mg/kg/injection, schedule: Q04DX003 (ip), vehicle: saline with Tween-80 100 % of control

Cc1o[nH]c(=O)c1C
inactive: dose: 100.0 mg/kg/injection, schedule: Q01DX009 (ip), vehicle: saline with Tween-80 100 % of control | dose: 200.0 mg/kg/injection, schedule: Q01DX009 (ip), vehicle: saline with Tween-80 100 % of control | dose: 400.0 mg/kg/injection, schedule: Q01DX009 (ip), vehicle: saline with Tween-80 100 % of control

C[Si](C)(OC(=O)N(CCCl)CCCl)O[Si](C)(C)OC(=O)N(CCCl)CCCl
inactive: dose: 6.25 mg/kg/injection, schedule: Q01DX009 (ip), vehicle: saline with Tween-80 108 % of control | [3] 124 % of control | [2] 115 % of control
active: [1] 165 % of control

NNc1cnc2ccccc2n1
inactive: dose: 1.88 mg/kg/injection, schedule: Q01DX009 (ip), vehicle: suspension in saline 93 % of control | dose: 18.8 mg/kg/injection, schedule: Q04DX003 (ip), vehicle: saline 101 % of control and 106 % of control | dose: 37.5 mg/kg/injection, schedule: Q01DX009 (ip), vehicle: suspension in saline 95 % of control | dose: 37.5 mg/kg/injection, schedule: Q04DX003 (ip), vehicle: saline 100 % of control and 103 % of control | dose: 75.0 mg/kg/injection, schedule: Q01DX009 (ip), vehicle: suspension in saline 90 % of control | dose: 75.0 mg/kg/injection, schedule: Q04DX003 (ip), vehicle: saline 100 % of control and 107 % of control

N#CC(C#N)=C(C#N)c1ccccc1
inactive: [3] 90 % of control | [1] 113 % of control

Cc1ccc2c(c1)nc(N)n2N
inactive: dose: 100.0 mg/kg/injection, schedule: Q01DX001 (ip), vehicle: Klucel (hydroxypropylcellulose) (HPC) 100 % of control | dose: 200.0 mg/kg/injection, schedule: Q01DX001 (ip), vehicle: Klucel (hydroxypropylcellulose) (HPC) 98 % of control | dose: 400.0 mg/kg/injection, schedule: Q01DX001 (ip), vehicle: Klucel (hydroxypropylcellulose) (HPC) 89 % of control

COc1ccccc1[B-]12OCC[N+]1(CNC(=O)C1=C(O)C3(O)C(=O)C4=C(O)c5c(O)cccc5C(C)(O)C4CC3C(N(C)C)C1=O)CCO2 (configuration not stated)
inactive: [4] 105 % of control | [5] 108 % of control | [6] 112 % of control

CC(C)c1cc(O)c2c(c1O)C1CC3C(C)(C)CCC[C@]23C(=O)O1 (some centres not stated)
inactive: dose: 4.88 mg/kg/injection, schedule: Q01DX005 (ip), vehicle: Klucel (hydroxypropylcellulose) (HPC) 95 % of control | dose: 9.75 mg/kg/injection, schedule: Q01DX005 (ip), vehicle: Klucel (hydroxypropylcellulose) (HPC) 100 % of control | dose: 19.5 mg/kg/injection, schedule: Q01DX005 (ip), vehicle: Klucel (hydroxypropylcellulose) (HPC) 100 % of control | dose: 39.0 mg/kg/injection, schedule: Q01DX005 (ip), vehicle: Klucel (hydroxypropylcellulose) (HPC) 96 % of control

O=c1nc2n(c3nccnc13)CCS2
inactive: [7] 111 % of control | [8] 104 % of control | [9] 100 % of control

COc1cc2cc(=O)n(N)c(C)c2cc1OC
inactive: [9] 108 % of control | [10] 106 % of control | dose: 200.0 mg/kg/injection, schedule: Q01DX009 (ip), vehicle: saline 99 % of control

O=C1OC(C2OC(=O)C(=O)C2C(=O)c2ccccc2)C(C(=O)c2ccccc2)C1=O (configuration not stated)
inactive: [11] 111 % of control | [12] 108 % of control | [13] 108 % of control

CCN(CC)CCNc1ccc(C)c2sc3cc(O)ccc3c(=O)c12
inactive: dose: 50.0 mg/kg/injection, schedule: Q01DX005 (ip), vehicle: saline 107 % of control | dose: 100.0 mg/kg/injection, schedule: Q01DX005 (ip), vehicle: saline 108 % of control | dose: 200.0 mg/kg/injection, schedule: Q01DX005 (ip), vehicle: saline 106 % of control

CC([NH-])C(=O)O.[Cl][Pt][Cl] (configuration not stated)
inactive: [7] 106 % of control | [8] 113 % of control | [9] 123 % of control | [10] 123 % of control
active: dose: 25.0 mg/kg/injection, schedule: Q01DX009 (ip), vehicle: distilled water + Tween-80 154 % of control

CC(C)(C)C1(C#N)C(=O)N(c2ccc(N3C(=O)C(C#N)(C(C)(C)C)C34c3ccccc3-c3ccccc34)cc2)C12c1ccccc1-c1ccccc12 (configuration not stated)
inactive: dose: 100.0 mg/kg/injection, schedule: Q04DX003 (ip), vehicle: Klucel (hydroxypropylcellulose) (HPC) 93 % of control | dose: 200.0 mg/kg/injection, schedule: Q04DX003 (ip), vehicle: Klucel (hydroxypropylcellulose) (HPC) 93 % of control | dose: 400.0 mg/kg/injection, schedule: Q04DX003 (ip), vehicle: Klucel (hydroxypropylcellulose) (HPC) 91 % of control

CC(C)=Cc1cc(-c2cc(C=C(C)C)nc(N)n2)nc(N)n1
inactive: dose: 60.0 mg/kg/injection, schedule: Q01DX005 (ip), vehicle: saline 97 % of control | dose: 120.0 mg/kg/injection, schedule: Q01DX005 (ip), vehicle: saline 94 % of control

Cc1c(C)c(C)c(S(=O)(=O)NCCCNS(=O)(=O)c2c(C)c(C)c(C)c(C)c2C)c(C)c1C
inactive: [4] 98 % of control | [5] 94 % of control | [6] 89 % of control

C#CCn1cc(F)c(=O)n(CC#C)c1=O
inactive: dose: 30.0 mg/kg/injection, schedule: Q04DX002 (ip), vehicle: saline with Tween-80 101 % of control | dose: 60.0 mg/kg/injection, schedule: Q04DX002 (ip), vehicle: saline with Tween-80 99 % of control | dose: 120.0 mg/kg/injection, schedule: Q04DX002 (ip), vehicle: saline with Tween-80 98 % of control | dose: 150.0 mg/kg/injection, schedule: Q04DX002 (ip), vehicle: saline with Tween-80 107 % of control | dose: 240.0 mg/kg/injection, schedule: Q04DX002 (ip), vehicle: saline with Tween-80 100 % of control | dose: 300.0 mg/kg/injection, schedule: Q04DX002 (ip), vehicle: saline with Tween-80 104 % of control | dose: 600.0 mg/kg/injection, schedule: Q04DX002 (ip), vehicle: saline with Tween-80 98 % of control

CCCCCn1c(C)cc(/C=C\c2ccc3cc(C)ccc3[n+]2C)c1C
inactive: dose: 0.5 mg/kg/injection, schedule: Q04DX003 (ip), vehicle: saline 118 % of control | dose: 1.0 mg/kg/injection, schedule: Q04DX003 (ip), vehicle: saline 109 % of control | dose: 2.0 mg/kg/injection, schedule: Q04DX003 (ip), vehicle: saline 109 % of control

C/C(O)=C(/N=Nc1ccccc1)C(=O)O
inactive: [11] 110 % of control | [12] 98 % of control

O=c1[nH]cnc2nc3c(nc12)CCc1ccccc1-3
inactive: [11] 100 % of control | [12] 102 % of control | [13] 97 % of control

O=C(Nc1ccc(O)c(C(=O)O)c1)Oc1ccc([N+](=O)[O-])cc1
inactive: [11] 102 % of control | [12] 107 % of control | [13] 94 % of control
